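A five-concentration, 48-hour dose response in 96-well plates underlies each endpoint, interpolated linearly between surrounding concentrations. Here, GI50 denotes the concentration required for 50% inhibition of growth.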 Calls of active or inactive are those of the source. Cut-off read from the data, not from the text of the source: active = GI50 up to about 1.1 µM and inactive = higher.
Columns and labels:
Experiment in all cases: NCI tumour cell line growth inhibition, 48 h
[1] = tested on: COLO 205
[2] = tested on: MCF7
[3] = tested on: SK-MEL-5
[4] = tested on: SW-620
[5] = tested on: A549
[6] = tested on: K562
[7] = tested on: HT-29
[8] = tested on: MDA-MB-435
[9] = tested on: CAKI-1
[10] = tested on: MDA-MB-231
[11] = tested on: UACC-62
[12] = tested on: SR
[13] = tested on: SF-295
[14] = tested on: HCT-15
[15] = tested on: 786-0
[16] = tested on: RPMI-8226
[17] = tested on: MDA-N
[18] = tested on: M14
[19] = tested on: LOX IMVI
[20] = tested on: SK-OV-3
[21] = tested on: HCC 2998
[22] = tested on: SN12C
[23] = tested on: MOLT-4
[24] = tested on: PC-3
[25] = tested on: ACHN
[26] = tested on: HL-60
[27] = tested on: OVCAR-8
[28] = tested on: HOP-92
[29] = tested on: OVCAR-5
[30] = tested on: SF-268
[31] = tested on: SK-MEL-28
[32] = tested on: EKVX
[33] = tested on: UO-31
[34] = tested on: SNB-19
[35] = tested on: IGROV-1
[36] = tested on: OVCAR-4
[37] = tested on: U-251
[38] = tested on: NCI-H460
[39] = tested on: HCT-116
[40] = tested on: A498
[41] = tested on: NCI-H522
[42] = tested on: SNB-75
[43] = tested on: CCRF-CEM
[44] = tested on: NCI-H226
[45] = tested on: UACC-257
[46] = tested on: Malme-3M
[47] = tested on: KM12
[48] = tested on: TK-10
[49] = tested on: BT-549
[50] = tested on: HOP-62
[51] = tested on: NCI-H23
[52] = tested on: SK-MEL-2
[53] = tested on: OVCAR-3
[54] = tested on: RXF 393
[55] = tested on: Hs-578T
[56] = tested on: NCI/ADR-RES
[57] = tested on: SF-539

Measured: GI50

CSc1cc(Cl)c(C)cc1S(=O)(=O)NC(=O)Nc1ccc(Cl)cc1
active: [11] 0.48 µM
inactive: [1] 15.5 µM | [2] 30.3 µM | [3] 22.2 µM | [4] 33.7 µM | [5] 33.3 µM | [6] 29.9 µM | [7] 35.2 µM | [8] 38.4 µM | [9] 41.6 µM | [10] 29.5 µM | [12] 21.5 µM | [13] 29.6 µM | [15] 31.2 µM | [16] 30.9 µM | [17] 33.5 µM | [18] 39.9 µM | [19] 10.9 µM | [20] 38.7 µM | [21] 16 µM | [22] 36.5 µM | [23] 16.8 µM | [24] 19.9 µM | [25] 27.8 µM | [26] 12.3 µM | [27] 35.6 µM | [28] 24.4 µM | [29] 45.3 µM | [30] 35.9 µM | [31] 46.1 µM | [32] 32.7 µM | [33] 17 µM | [34] 30.5 µM | [35] 39.6 µM | [36] 40.1 µM | [37] 36.6 µM | [38] 29.1 µM | [39] 17.5 µM | [40] 38.2 µM | [41] 20.4 µM | [42] 27.1 µM | [43] 12.6 µM | [44] 22 µM | [45] 28.5 µM | [46] 31.6 µM | [47] 24.1 µM | [48] 28.5 µM | [49] 32 µM | [50] 24.6 µM | [51] 18.4 µM | [52] 25.8 µM | [53] 28 µM | [54] 22.9 µM | [55] 51.8 µM | [56] 25.6 µM
20.5 µM: [14]

N#Cc1nc(C2=C(Cl)c3ccccc3OC2)[nH]c1C#N
34.8 µM: [14]
inactive: [2] 22.8 µM | [3] 19.1 µM | [4] 24.7 µM | [5] 33.3 µM | [6] 22.2 µM | [7] 19.1 µM | [9] 58.6 µM | [11] 22.9 µM | [15] 32.1 µM | [16] 24.4 µM | [18] 19.4 µM | [19] 16.9 µM | [20] 36.7 µM | [21] 16.3 µM | [22] 27.5 µM | [23] 12.9 µM | [24] 11 µM | [25] 32.5 µM | [26] 22.7 µM | [27] 30.4 µM | [28] 14.9 µM | [29] 38.5 µM | [30] 32.6 µM | [31] 23.2 µM | [32] 31.5 µM | [33] 24 µM | [34] 29.8 µM | [35] 30.1 µM | [36] 53.3 µM | [37] 18.4 µM | [57] 17.1 µM | [38] 22 µM | [40] 24.3 µM | [43] 11.5 µM | [47] 26.1 µM | [48] 33.6 µM | [49] 18.9 µM | [51] 25.1 µM | [53] 27.7 µM | [54] 13.9 µM | [55] 38.3 µM | [56] 41.1 µM
